Reference: PubChem BioAssay (NCI)
Values joined by “and” are separate entries in the source; they are usually repeats but may differ in a detail not shown here. Identical values can stand only once.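 Briefly, cells in 96-well plates were exposed to five compound concentrations for 48 h, and endpoints were estimated by linear interpolation. GI50 marks 50% less growth. TGI is the concentration that stops growth completely.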

Key:
Assay in all cases: NCI tumour cell line growth inhibition, 48 h
HOP-92 NSCLC = tested on: HOP-92 NSCLC
PC-3 prostate = tested on: PC-3 prostate
SK-MEL-5 melanoma = tested on: SK-MEL-5 melanoma
CAKI-1 renal = tested on: CAKI-1 renal
UO-31 renal = tested on: UO-31 renal
NCI-H522 lung = tested on: NCI-H522 lung
LOX IMVI melanoma = tested on: LOX IMVI melanoma
SF-539 CNS = tested on: SF-539 CNS
A549 NSCLC = tested on: A549 NSCLC
RXF 393 renal = tested on: RXF 393 renal

## Cc1ccc2nc(-c3ccc(N(C)C)c(Br)c3)cn2c1
HOP-92 NSCLC
  GI50: 44.4 µM
  TGI: > 100 µM
PC-3 prostate
  GI50: 5690 nM
  TGI: > 100 µM
SK-MEL-5 melanoma
  GI50: 5780 nM
  TGI: > 100 µM
CAKI-1 renal
  GI50: > 100 µM
  TGI: > 100 µM
UO-31 renal
  GI50: > 100 µM
  TGI: > 100 µM
NCI-H522 lung
  GI50: > 100000 nM
  TGI: > 100 µM
LOX IMVI melanoma
  GI50: 35200 nM
  TGI: > 100 µM
SF-539 CNS
  GI50: 8140 nM
  TGI: > 100 µM
A549 NSCLC
  GI50: > 100000 nM
  TGI: > 100 µM
RXF 393 renal
  GI50: > 100000 nM
  TGI: > 100 µM

## CCC[n+]1cc2cc(OC)c(OC)cc2c2c1-c1cc3c(cc1C2)OCO3
HOP-92 NSCLC
  GI50: 10.1 µM
  TGI: 40.6 µM
PC-3 prostate
  GI50: 4700 nM
  TGI: 20.7 µM
SK-MEL-5 melanoma
  GI50: 2090 nM
  TGI: 7.11 µM
CAKI-1 renal
  GI50: 7.14 µM
  TGI: 44.2 µM
UO-31 renal
  GI50: 13.1 µM
  TGI: 35.1 µM
NCI-H522 lung
  GI50: 79.2 nM
  TGI: 1.71 µM
LOX IMVI melanoma
  GI50: 8250 nM
  TGI: > 62.2 µM
SF-539 CNS
  GI50: 992 nM
  TGI: 6.34 µM
A549 NSCLC
  GI50: 18300 nM
  TGI: 35.5 µM
RXF 393 renal
  GI50: 17000 nM
  TGI: 35.7 µM

## CN1C(=O)N(C)C2C1NN=c1s/c(=C\c3ccc(F)cc3)c(=O)n12 (stereo not drawn)
HOP-92 NSCLC
  GI50: 8.49 µM
  TGI: > 100 µM
PC-3 prostate
  GI50: 2330 nM
  TGI: > 100 µM
SK-MEL-5 melanoma
  GI50: 995 nM
  TGI: 12 µM
CAKI-1 renal
  GI50: 1.68 µM
  TGI: > 100 µM
UO-31 renal
  GI50: 3.9 µM
  TGI: > 100 µM
NCI-H522 lung
  GI50: 2220 nM
  TGI: > 100 µM
LOX IMVI melanoma
  GI50: 6010 nM
  TGI: > 100 µM
SF-539 CNS
  GI50: 2100 nM
  TGI: 5.72 µM
A549 NSCLC
  GI50: 4880 nM
  TGI: > 100 µM
RXF 393 renal
  GI50: 785 nM
  TGI: 6 µM

## Cc1[nH]nc(C(=O)n2nc(N)c3ccccc32)c1[N+](=O)[O-]
HOP-92 NSCLC
  GI50: 56.4 µM
  TGI: > 100 µM
PC-3 prostate
  GI50: > 100000 nM
  TGI: > 100 µM
SK-MEL-5 melanoma
  GI50: > 100000 nM
  TGI: > 100 µM
CAKI-1 renal
  GI50: > 100 µM
  TGI: > 100 µM
UO-31 renal
  GI50: > 78.6 µM
  TGI: > 100 µM
NCI-H522 lung
  GI50: > 100000 nM
  TGI: > 100 µM
LOX IMVI melanoma
  GI50: > 39500 nM
  TGI: > 100 µM
SF-539 CNS
  GI50: > 100000 nM
  TGI: > 100 µM
A549 NSCLC
  GI50: > 100000 nM
  TGI: > 100 µM
RXF 393 renal
  GI50: > 100000 nM
  TGI: > 100 µM

## Cc1cc2c(cc1C)N(C(=O)CCl)CCN2C(=O)CCl
HOP-92 NSCLC
  GI50: 1.6 µM
  TGI: 3.2 µM
PC-3 prostate
  GI50: 1430 nM
  TGI: 2.89 µM
SK-MEL-5 melanoma
  GI50: 640 nM
  TGI: 1.93 µM
CAKI-1 renal
  GI50: 1.78 µM
  TGI: 4.08 µM
UO-31 renal
  GI50: 1.52 µM
  TGI: 3.48 µM
NCI-H522 lung
  GI50: 178 nM
  TGI: 0.348 µM
LOX IMVI melanoma
  GI50: 173 nM
  TGI: 0.365 µM
SF-539 CNS
  GI50: 1650 nM
  TGI: 3.24 µM
A549 NSCLC
  GI50: 2090 nM
  TGI: 4.29 µM
RXF 393 renal
  GI50: 237 nM
  TGI: 0.668 µM

## Cc1sc2nc3c4ccccc4c(NCCCN(C)C)nn3c(=O)c2c1C
HOP-92 NSCLC
  GI50: 5.57 µM
  TGI: 20 µM
PC-3 prostate
  GI50: 11500 nM
  TGI: 24.2 µM
SK-MEL-5 melanoma
  GI50: 3010 nM
  TGI: 9.8 µM
CAKI-1 renal
  GI50: 8.87 µM
  TGI: 23.5 µM
UO-31 renal
  GI50: 3.13 µM
  TGI: 16.7 µM
NCI-H522 lung
  GI50: 12400 nM
  TGI: 28.8 µM
LOX IMVI melanoma
  GI50: 2000 nM
  TGI: 6.85 µM
SF-539 CNS
  GI50: 1650 nM
  TGI: 3.04 µM
A549 NSCLC
  GI50: 2520 nM
  TGI: 20.4 µM
RXF 393 renal
  GI50: 5200 nM
  TGI: 19.8 µM

## CCn1c2ccc(O)cc2c2c(C)c3c[n+](C)ccc3c(C)c21
HOP-92 NSCLC
  GI50: 2.07 µM
  TGI: 30.3 µM
PC-3 prostate
  GI50: 15200 nM
  TGI: > 100 µM
SK-MEL-5 melanoma
  GI50: 2270 nM
  TGI: 10.8 µM
CAKI-1 renal
  GI50: 65.2 µM
  TGI: > 100 µM
UO-31 renal
  GI50: 14.9 µM
  TGI: > 100 µM
NCI-H522 lung
  GI50: 1460 nM
  TGI: 10.4 µM
LOX IMVI melanoma
  GI50: 8830 nM
  TGI: > 100 µM
SF-539 CNS
  GI50: 873 nM
  TGI: 14.8 µM
A549 NSCLC
  GI50: 3810 nM
  TGI: > 100 µM
RXF 393 renal
  GI50: 5580 nM
  TGI: > 100 µM

## NC(=O)c1cc2c3ccccc3ccn2c1-c1ccccc1
HOP-92 NSCLC
  GI50: 0.0179 µM
  TGI: 7.77 µM
PC-3 prostate
  GI50: 37.1 nM
  TGI: 12.6 µM
SK-MEL-5 melanoma
  GI50: 39.2 nM
  TGI: 3.14 µM
CAKI-1 renal
  GI50: 0.143 µM
  TGI: 3.54 µM
UO-31 renal
  GI50: 0.708 µM
  TGI: 26.3 µM
NCI-H522 lung
  GI50: 66.6 nM
  TGI: 20.8 µM
LOX IMVI melanoma
  GI50: 91.2 nM
  TGI: 16.2 µM
SF-539 CNS
  GI50: 24.8 nM
  TGI: 0.0716 µM
A549 NSCLC
  GI50: 96.9 nM
  TGI: 9.82 µM
RXF 393 renal
  GI50: 46.2 nM
  TGI: 2.26 µM

## COc1cc2ncnc(Nc3ccc(F)c(Cl)c3)c2cc1NC(=O)/C=C/CN1CCCCC1
HOP-92 NSCLC
  GI50: 0.0672 µM and 0.643 µM
  TGI: 2.43 µM and 5.63 µM
PC-3 prostate
  GI50: 2530 nM and 2780 nM
  TGI: 10.5 µM and > 10 µM
SK-MEL-5 melanoma
  GI50: 1610 nM and 1660 nM
  TGI: 3.13 µM and 3.06 µM
CAKI-1 renal
  TGI: 2.81 µM and 3.43 µM
UO-31 renal
  TGI: 2.23 µM and 1.99 µM
NCI-H522 lung
  GI50: 29.6 nM and 6.94 nM
  TGI: 1.64 µM and 1.89 µM
LOX IMVI melanoma
  GI50: 1750 nM and 1690 nM
  TGI: 3.27 µM and 3.24 µM
SF-539 CNS
  GI50: 1630 nM and 1560 nM
  TGI: 3.08 µM and 3.03 µM
A549 NSCLC
  GI50: 1270 nM and 1650 nM
  TGI: 3.71 µM and > 8.03 µM
RXF 393 renal
  GI50: 919 nM and 890 nM
  TGI: 2.55 µM and 2.94 µM
